# Laboratory results reported in US9321772B2, “Substituted pyrazolo[3,4-D]pyrimidines and uses thereof” (The Regents of the University of California, priority 2011, dated 2016).
# What was measured:
# [1] = test system: 266 kinases (approximately one-half of the human kinome); assay: Kinome-wide in vitro kinase profiling; type: biochemical; details: 1 μM; among AD36, AD57, AD58
# Text: (§1) FIG. 6A-6C Select Screen Inhibition Data for Tyrosine Kinases. Percent inhibition of kinase activity. Dark gray is greater than 80% inhibition, white is 40-80% inhibition, and light gray is less than 40% inhibition. Hashed boxes indicate no useful data was obtained. Full assay conditions described at www.invitrogen.com/kinaseprofiling.
# as §1, with “7A-7F” for “6A-6C”, “Serine/Threonine” for “Tyrosine”
# as §1, with “8” for “6A-6C”, “Lipid” for “Tyrosine”
# Using in vitro kinase assays we tested AD57, AD36, and AD58 at 1 μM for activity against approximately one-half of the human kinome (FIG. 1E): 165 Ser/Thr kinases, 91 Tyr kinases, and 10 PI kinases were assayed, totaling 266 kinases (244 distinct kinases plus 22 mutant isoforms; see FIG. 6A-6C, FIG. 7A-7F, and FIG. 8 for measured inhibition values).
# [2] = molecular target: T1, RET fusion protein CCDC6-RET (Homo sapiens, UniProt P07949); assay: RET fusion dephosphorylation in TPC1 whole cell lysates; type: cell-based
# T1 construct: endogenous in cells; host or cells: TPC1 thyroid cancer cells; the other entry of the earlier key: CCDC6 (Q16204, Coiled-coil domain-containing protein 6)
# T1 sequence (P07949 with tags, fused parts or gaps): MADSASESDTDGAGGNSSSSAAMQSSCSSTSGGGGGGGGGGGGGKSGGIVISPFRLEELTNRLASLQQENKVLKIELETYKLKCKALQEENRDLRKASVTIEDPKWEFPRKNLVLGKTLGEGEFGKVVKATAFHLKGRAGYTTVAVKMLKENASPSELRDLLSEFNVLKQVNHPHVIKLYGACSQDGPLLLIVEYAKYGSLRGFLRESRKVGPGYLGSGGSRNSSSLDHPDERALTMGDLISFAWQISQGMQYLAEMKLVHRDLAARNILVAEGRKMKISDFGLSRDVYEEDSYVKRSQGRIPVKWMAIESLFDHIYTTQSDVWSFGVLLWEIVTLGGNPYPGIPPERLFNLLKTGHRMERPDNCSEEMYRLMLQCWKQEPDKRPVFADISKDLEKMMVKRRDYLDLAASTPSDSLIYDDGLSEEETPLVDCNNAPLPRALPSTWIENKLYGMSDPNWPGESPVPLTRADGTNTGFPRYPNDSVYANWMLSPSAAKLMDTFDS
# Protocol: FIG. 24. Whole cell lysates of TPC1 cells were extracted after treatment with AD80 at indicated concentrations and given time points. TPC1 cells were grown in 6 cm dishes at 70-80% confluence in growth media supplemented with 10% FBS. AD80 treatment leads to dephosphorylation of the RET fusion protein at low nanomolar concentrations <10 nM. The inhibition of RET results in dephosphorylation of downstream signaling (PI3K, MAPK).
SMILES,number of kinases inhibited at a cutoff of greater than 80% inhibition [1],concentration leading to dephosphorylation of the RET fusion protein [2]
CC(C)n1nc(-c2ccc(NC(=O)Nc3cccc(C(F)(F)F)c3)cc2)c2c(N)ncnc21 [AD57],most,–
CC(C)n1nc(-c2ccc(NC(=O)Nc3cc(C(F)(F)F)ccc3F)cc2)c2c(N)ncnc21 [AD80],–,< 10 nM
